In patent US20030109523A1, “Bicyclic antagonists selective for the alphavbeta3 integrin” (Wyeth, priority 1999, published 2003):
Marks after values point to notes of the source that are not given here.

Legend:
[1] = system: thyro-parathyroidectomized (TPTX) rats; assay: PTH-induced Hypercalcemia of Thyro-parathyroidectomized Male Rats; format: in vivo, rat; details: for Change in Serum Calcium after 3 hours / Change in Serum Calcium after 6 hours: Table V, TPTX male rats, rPTH(1-34) 0.45 μg/kg/hr, Example 37 100 mg/kg, s.c.
Excerpt: Effects of Test Compounds on PTH-induced Hypercalcemia of Thyro-parathyroidectomized Male Rats. Male thyro-parathyroidectomized (TPTX) rats (Charles River) were randomly assigned to groups of 7 rats/group. […] For evaluation of prophylactic effects of a test drug, another minipump with appropriate concentration of the test drug solution was implanted subcutaneously at a site away from PTH minipump or implanted as a pellet of the test compound away from the PTH minipump. Alternatively, test drugs were administered by oral gavage as a solution or uniform suspension in an appropriate medium depending on the physical properties of the test compound. A group of 7 unimplanted TPTX rats was set aside as a normal control group.

αIIbβ3 integrin = target: T1, αIIbβ3 integrin (Homo sapiens, UniProt P05106+P08514); assay: ADP-Induced Platelet Aggregation; format: cell-based; details: Table VII; for IC50: ADP 20 uM, human platelets, read-out: Platelet Aggregation αIIbβ3 IC50
T1 construct: Human Platelets: Platelet-enriched plasma was obtained commercially from a donor pool; from tissue; host or cells: human platelet-rich plasma from a commercial donor pool
Procedure, shortened: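 Pooled human PRP ([…]) preincubated with compound (1% vehicle) 5 min at 37° C with stirring, then stimulated with 20 uM ADP. Light transmittance followed 5 min against PPP reference; maximal aggregation expressed as % of vehicle control, mean ± SD.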

αVβ3 integrin = target: T2, αVβ3 integrin (Homo sapiens, UniProt P05106+P06756); assay: Osteopontin-αVβ3 Cell Attachment Test Procedure; format: cell-based; details: for remaining activity at 20 µM / remaining activity at 100 µM: % of maximal attachment, read-out: (αVβ3) CELL ATTACHMENT, % @ concentration
T2 construct: αVβ3-expressing cell lines are maintained by standard tissue culture techniques; endogenous in cells; host or cells: αVβ3-expressing cell lines
Procedure, shortened: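 Cells expressing αVβ3 (10^6 cells/mL) added with test compound to osteopontin-coated, 1% BSA-blocked wells in triplicate; 1.5 h at 25° C. Attached cells quantified by MTT dye conversion (overnight, 37° C.); optical density expressed as % of maximal attachment minus uncoated-well background, mean ±SD.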

osteoclasts = assay: Osteoclast Bone Pitting; format: cell-based, rat
Procedure, shortened: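 Osteoclasts on bone slices at an acidic pH promoting resorption; slices fixed, osteoclasts counted after TRAP staining, cells stripped by sonication in 0.25M NH4OH and toluidine blue-stained pits counted manually. Block design, three replicate slices per treatment per animal; IC50 from dose-response curves.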

[2] = target: T3, Vitronectin Receptor (αVβ3) (Homo sapiens, UniProt P05106+P06756); assay: Vitronectin Receptor (αVβ3) Binding Test Procedure; details: for remaining activity at 30 µM: % Max = percentage of the specific binding, read-out: (αVβ3) RECEPTOR BINDING, % @ concentration
T3 construct: expressed in transfected cells; host or cells: 512P5 cells (plasma membrane preparation)

[3] = @200 μM, percent of maximal aggregation

T3 sequence (P06756 31-889 limits assumed): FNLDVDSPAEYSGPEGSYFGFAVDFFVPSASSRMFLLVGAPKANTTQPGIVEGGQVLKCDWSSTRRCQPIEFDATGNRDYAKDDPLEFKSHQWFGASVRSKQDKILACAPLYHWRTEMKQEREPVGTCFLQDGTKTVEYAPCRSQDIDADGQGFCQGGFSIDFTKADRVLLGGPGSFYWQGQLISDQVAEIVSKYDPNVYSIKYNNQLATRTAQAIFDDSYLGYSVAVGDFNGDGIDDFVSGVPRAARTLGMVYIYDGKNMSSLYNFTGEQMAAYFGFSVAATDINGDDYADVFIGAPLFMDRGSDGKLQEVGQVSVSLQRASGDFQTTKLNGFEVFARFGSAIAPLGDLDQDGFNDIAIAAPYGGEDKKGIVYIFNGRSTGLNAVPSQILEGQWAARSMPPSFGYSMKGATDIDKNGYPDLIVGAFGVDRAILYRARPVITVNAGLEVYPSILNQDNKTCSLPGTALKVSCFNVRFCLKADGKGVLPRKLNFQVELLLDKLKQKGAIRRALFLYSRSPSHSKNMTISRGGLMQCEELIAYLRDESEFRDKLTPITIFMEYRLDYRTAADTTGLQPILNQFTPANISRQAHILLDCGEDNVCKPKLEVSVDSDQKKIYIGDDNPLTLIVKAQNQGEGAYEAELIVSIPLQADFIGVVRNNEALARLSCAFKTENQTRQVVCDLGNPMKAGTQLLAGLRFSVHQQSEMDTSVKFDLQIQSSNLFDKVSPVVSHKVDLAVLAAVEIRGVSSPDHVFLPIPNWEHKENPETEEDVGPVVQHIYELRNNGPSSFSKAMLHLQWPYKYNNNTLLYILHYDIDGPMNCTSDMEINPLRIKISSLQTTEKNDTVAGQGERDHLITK
T3 sequence (P06756 891-1048 partner limits assumed): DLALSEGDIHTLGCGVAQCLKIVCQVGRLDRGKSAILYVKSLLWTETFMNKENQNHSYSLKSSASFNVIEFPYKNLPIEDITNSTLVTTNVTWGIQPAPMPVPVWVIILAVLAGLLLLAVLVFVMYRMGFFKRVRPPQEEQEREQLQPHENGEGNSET
T3 sequence (P05106 27-788): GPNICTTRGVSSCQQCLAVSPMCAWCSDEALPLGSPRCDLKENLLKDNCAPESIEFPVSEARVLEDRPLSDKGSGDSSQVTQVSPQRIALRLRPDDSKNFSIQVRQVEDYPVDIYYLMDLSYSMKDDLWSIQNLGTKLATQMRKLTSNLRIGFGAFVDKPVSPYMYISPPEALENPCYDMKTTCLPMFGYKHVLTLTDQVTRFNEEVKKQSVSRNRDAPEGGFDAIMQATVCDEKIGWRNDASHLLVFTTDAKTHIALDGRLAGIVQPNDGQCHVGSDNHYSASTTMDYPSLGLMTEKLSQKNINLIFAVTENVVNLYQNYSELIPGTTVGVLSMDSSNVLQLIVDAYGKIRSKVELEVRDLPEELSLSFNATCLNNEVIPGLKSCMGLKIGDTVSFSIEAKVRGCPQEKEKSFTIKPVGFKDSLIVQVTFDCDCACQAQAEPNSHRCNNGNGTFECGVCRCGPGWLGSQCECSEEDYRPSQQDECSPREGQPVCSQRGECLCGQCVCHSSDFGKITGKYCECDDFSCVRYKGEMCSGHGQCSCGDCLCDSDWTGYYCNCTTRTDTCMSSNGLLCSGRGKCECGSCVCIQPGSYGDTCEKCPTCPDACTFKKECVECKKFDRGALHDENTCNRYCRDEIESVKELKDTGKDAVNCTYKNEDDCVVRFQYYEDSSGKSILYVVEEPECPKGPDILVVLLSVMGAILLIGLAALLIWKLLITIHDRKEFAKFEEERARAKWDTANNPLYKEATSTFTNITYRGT
T2 sequence (P06756 31-889 limits assumed): as the sequence (P06756 31-889 limits assumed) above
T2 sequence (P06756 891-1048 partner limits assumed): as the sequence (P06756 891-1048 partner limits assumed) above
T2 sequence (P05106 27-788): as the sequence (P05106 27-788) above
T1 sequence (P08514 32-887 limits assumed): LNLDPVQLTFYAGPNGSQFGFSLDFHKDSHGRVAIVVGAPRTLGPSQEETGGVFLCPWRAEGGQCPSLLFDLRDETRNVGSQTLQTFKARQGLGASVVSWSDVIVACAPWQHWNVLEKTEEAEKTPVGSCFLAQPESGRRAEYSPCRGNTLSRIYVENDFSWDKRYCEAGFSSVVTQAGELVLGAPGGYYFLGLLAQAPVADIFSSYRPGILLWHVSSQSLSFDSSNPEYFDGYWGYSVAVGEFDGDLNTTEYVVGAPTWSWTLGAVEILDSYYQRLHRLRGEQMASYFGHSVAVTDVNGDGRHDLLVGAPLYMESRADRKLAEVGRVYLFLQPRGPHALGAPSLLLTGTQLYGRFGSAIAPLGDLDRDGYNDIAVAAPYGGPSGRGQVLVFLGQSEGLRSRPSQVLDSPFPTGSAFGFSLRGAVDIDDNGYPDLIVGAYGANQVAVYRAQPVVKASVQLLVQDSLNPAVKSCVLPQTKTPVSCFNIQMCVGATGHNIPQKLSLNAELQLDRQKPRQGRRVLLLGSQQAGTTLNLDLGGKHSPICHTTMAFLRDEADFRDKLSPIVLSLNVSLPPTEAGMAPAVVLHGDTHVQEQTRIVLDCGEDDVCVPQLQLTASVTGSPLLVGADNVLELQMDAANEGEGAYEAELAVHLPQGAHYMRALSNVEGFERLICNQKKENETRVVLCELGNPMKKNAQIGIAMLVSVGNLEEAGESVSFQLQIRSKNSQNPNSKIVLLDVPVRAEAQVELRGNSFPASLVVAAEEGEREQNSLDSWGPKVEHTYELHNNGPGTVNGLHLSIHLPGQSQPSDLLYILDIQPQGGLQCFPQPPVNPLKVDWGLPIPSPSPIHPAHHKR
T1 sequence (P08514 891-1039 partner limits assumed): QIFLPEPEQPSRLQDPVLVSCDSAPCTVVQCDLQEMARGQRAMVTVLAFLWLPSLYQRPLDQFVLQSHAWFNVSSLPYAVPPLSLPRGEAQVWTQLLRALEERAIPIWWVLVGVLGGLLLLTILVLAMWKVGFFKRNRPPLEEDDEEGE
T1 sequence (P05106 27-788): as the sequence (P05106 27-788) above

Question: Which results are given for `N=C(N)NCCCOc1ccc2c(c1)CCC(CC(=O)O)C2.O=C(O)C(F)(F)F` (centres unmarked) [Example 37, [6-(3-Guanidino-propoxy)-1,2,3,4-tetrahydro-napthalen-2-yl]-acetic Acid Trifluoroacetate]?
Answer: Change in Serum Calcium after 3 hours ([1]; 1st column pair): 1.72 mg/dL; Change in Serum Calcium after 6 hours ([1]; 1st column pair): 2.22 mg/dL; Change in Serum Calcium after 3 hours ([1]; 2nd column pair): 0.97 mg/dL; Change in Serum Calcium after 6 hours ([1]; 2nd column pair): 2.21 mg/dL; Change in Serum Calcium after 3 hours ([1]; 3rd column pair): 0.95 mg/dL; Change in Serum Calcium after 6 hours ([1]; 3rd column pair): 1.80 mg/dL; Change in Serum Calcium after 3 hours ([1]; 4th column pair): 1.31 mg/dL; Change in Serum Calcium after 6 hours ([1]; 4th column pair): 1.63 mg/dL; IC50 (αIIbβ3 integrin): 82.4 µM; IC50 (αVβ3 integrin; attachment of cells to osteopontin, read-out: (αVβ3) IC50 CELL ATTACHMENT): 8.9 µM; BONE PITTING INHIBITION (osteoclasts; @ 238 μM): 30% @ 238; IC50 ([2]; read-out: (αVβ3) IC50 RECEPTOR BINDING): 2.9 µM

Question: Which IC50 (αIIbβ3 integrin) does the source give for `N=C(N)NCCCCOc1ccc2c(c1)CC(CCC(=O)O)C(=O)N2` (centres unmarked) [Example 224, 3-[6-(4-Guanidino-butoxy)-2-oxo-1,2,3,4-tetrahydro-quinolin-3-yl]-propionic Acid] here?
Answer: 53 µM

Question: And the melting point?
Answer: 152 to 155 °C

Question: What about the remaining activity at 20 µM (αVβ3 integrin) of the same compound?
Answer: 100%

Question: What about the inhibition at 216 µM (osteoclasts; Rattus norvegicus, Osteoclast) of the same compound?
Answer: -62%

Question: What about the remaining activity at 30 µM [2] of the same compound?
Answer: 100%

Question: Which IC50 (αIIbβ3 integrin) does the source give for `N=C(N)NCCCCOc1ccc2c(c1)NC(=O)C(CCC(=O)O)C2` (centres unmarked) [Example 232, 3-[7-(4-Guanidino-butoxy)-2-oxo-1,2,3,4-tetrahydro-quinolin-3-yl]-propionic Acid] here?
Answer: 155 µM

Question: And the melting point?
Answer: 176 to 177 °C

Question: What about the remaining activity at 100 µM (αVβ3 integrin) of the same compound?
Answer: 97%

Question: And the inhibition at 216 µM (osteoclasts; Rattus norvegicus, Osteoclast)?
Answer: -70%

Question: And the remaining activity at 30 µM [2]?
Answer: 75.3%

Question: Which results are given for `N=C(N)NCCCOc1cccc2c1NC(=O)C(CC(=O)O)C2` (centres unmarked) [Example 234, [8-(3-Guanidino-propoxy)-2-oxo-1,2,3,4-tetrahydro-quinolin-3-yl]-acetic Acid]?
Answer: remaining activity at 200 µM (αIIbβ3 integrin; [3]): 74.3%; melting point: 151 to 155 °C; remaining activity at 100 µM (αVβ3 integrin): 85%; inhibition at 230 µM (osteoclasts; Rattus norvegicus, Osteoclast, @ 230 μM): 8%; remaining activity at 30 µM [2]: 100%

Question: Which remaining activity at 200 µM (αIIbβ3 integrin; [3]) does the source give for `N=C(N)NCCCCOc1cccc2c1NC(=O)C(CC(=O)O)C2` (centres unmarked) [Example 235, [8-(4-Guanidino-butoxy)-2-oxo-1,2,3,4-tetrahydro-quinolin-3-yl]-acetic Acid] here?
Answer: 81.1%

Question: What about the melting point of the same compound?
Answer: 207 to 210 °C

Question: What about the remaining activity at 100 µM (αVβ3 integrin) of the same compound?
Answer: 91%

Question: And the inhibition at 221 µM (osteoclasts; Rattus norvegicus, Osteoclast, @ 221 μM)?
Answer: -50%

Question: What about the remaining activity at 30 µM [2] of the same compound?
Answer: 100%

Question: For `N=C(N)NCCCOc1ccc2cc(CC(=O)O)c(=O)n(Cc3ccccc3)c2c1.O=C(O)C(F)(F)F` [Example 239, [1-Benzyl-7-(3-guanidino-propoxy)-2-oxo-1,2-dihydro-quinolin-3-yl]-acetic Acid Trifluoroacetic Acid Salt], which “Percent of Maximal” value (αIIbβ3 integrin; [3]) is on record?
Answer: 83.7@200%

Question: What about the melting point of the same compound?
Answer: 132 to 134 °C

Question: And the remaining activity at 20 µM (αVβ3 integrin)?
Answer: 99.7%

Question: What about the remaining activity at 100 µM (αVβ3 integrin) of the same compound?
Answer: 67.5%

Question: What about the inhibition at 19.1 µM (osteoclasts; Rattus norvegicus, Osteoclast, @ 19.1 μM) of the same compound?
Answer: 33%

Question: And the remaining activity at 30 µM [2]?
Answer: 70%

Question: With Cyclo(-Arg-Gly-Asp-D-Phe-Val) as the compound, how does the “Change in Serum Calcium (mg/dL)” value ([1]; Table III, TPTX rat, 100 mg/kg.sc) read?
Answer: −0.90 + 0.28 mg/dL

Question: And the “Change in Serum Calcium after 3 hours” value ([1]; 1st column pair)?
Answer: 0.69 mg/dL

Question: And the “Change in Serum Calcium after 6 hours” value ([1]; 1st column pair)?
Answer: 1.20* mg/dl

Question: What about the “Change in Serum Calcium after 3 hours” value ([1]; 2nd column pair) of the same compound?
Answer: 0.58** mg/dl

Question: And the “Change in Serum Calcium after 6 hours” value ([1]; 2nd column pair)?
Answer: 1.44* mg/dl

Question: What about the “Change in Serum Calcium after 3 hours” value ([1]; 3rd column pair) of the same compound?
Answer: 0.01** mg/dl

Question: And the “Change in Serum Calcium after 6 hours” value ([1]; 3rd column pair)?
Answer: 0.63 mg/dL

Question: What about the “Change in Serum Calcium after 3 hours” value ([1]; 4th column pair) of the same compound?
Answer: 0.51** mg/dl

Question: And the “Change in Serum Calcium after 6 hours” value ([1]; 4th column pair)?
Answer: 1.07 mg/dL
